# Measured values published in patent US5624957A, “Rary-specific retinobenzoic acid derivatives” (Bristol-Myers Squibb Company, priority 1995, dated 1997).
# Experiments:
# Rhino Mouse Utriculi = assay: Rhino mouse model, reduction of utriculi (comedolytic activity); assay type: in vivo; conditions: for ED30 (the concentration producing a 30% reduction in the rhino mouse utriculi): interpolation of regression lines of log concentration-percent reduction plots
# Experimental: When representative compounds of the present invention were tested using that same procedure, the ED30 (the concentration producing a 30% reduction in the rhino mouse utriculi) values calculated by interpolation of the regression lines of the log concentration-percent reduction plots were as follows: […]
# RAR α, β, or γ = assay: Receptor transactivation assay, RAR subtypes taken together; assay type: cell-based; conditions: read-out: EC50 for retinoic acid; varies for given receptors; usually in this range
# Excerpt: Activation of just one receptor and failure to activate another is the basis for selectivity/specificity. In our definitions, "selectivity" means that the compound preferentially activates one receptor but also activates at least one other at a higher concentration and "specificity" means that the compound activates only one receptor in the concentration range tested. The details of the receptor-based transactivation assay are disclosed in the literature, e.g. see Nature 1988, 332, 850-853.
# (§1) In the retinoid transactivation assay, HeLa cells are co-transfected with DNA encoding RAR α, β, or γ, and an RAR-responsive CAT (chloramphenicol acetyltransferase) reporter gene. Retinoid efficacy is measured by the concentration of induced CAT gene product as determined by ELISA assay. Retinoic acid (RA) is used as a reference compound. […] The mean EC50 value for each of the receptors is calculated using a computer generated induced-fit program.
# "N.A." means that the compound had no transactivation at any dose tested (up to 10^-6 M).
# [1] = rat, in vivo, po, 150 mg/kg
# Excerpt: Compounds having the beneficial pharmacological effects of retinoids but without retinoid-induced hypertriglyceridemia would be especially desirable for oral retinoid therapy.
# [2] = systemic use; cited from earlier work
# RARγ = target: T1, RARγ (Homo sapiens, UniProt P13631); assay: Receptor transactivation assay, RARγ (CAT reporter, HeLa cells); assay type: cell-based
# T1 construct: expressed in transfected cells; host or cells: HeLa
# T1 sequence (P13631 1-454): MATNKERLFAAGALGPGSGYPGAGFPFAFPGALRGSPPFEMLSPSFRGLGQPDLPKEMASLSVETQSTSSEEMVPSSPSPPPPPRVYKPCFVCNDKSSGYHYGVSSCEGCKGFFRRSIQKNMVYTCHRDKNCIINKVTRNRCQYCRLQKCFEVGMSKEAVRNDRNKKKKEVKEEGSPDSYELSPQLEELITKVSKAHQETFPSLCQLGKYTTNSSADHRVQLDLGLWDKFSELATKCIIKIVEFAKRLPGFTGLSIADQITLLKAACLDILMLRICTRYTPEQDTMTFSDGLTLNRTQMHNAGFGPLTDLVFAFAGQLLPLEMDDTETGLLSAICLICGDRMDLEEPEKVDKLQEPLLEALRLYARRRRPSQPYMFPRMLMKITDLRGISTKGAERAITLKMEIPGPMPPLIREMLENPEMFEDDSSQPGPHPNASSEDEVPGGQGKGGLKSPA
# Experimental: (§2) Activation of just one receptor and failure to activate another is the basis for selectivity/specificity.
# as §1, with “assay.” for “assay. Retinoic acid (RA) is used as a reference compound.”
# RARβ = target: T2, RARβ (Homo sapiens, UniProt P10826); assay: Receptor transactivation assay, RARβ (CAT reporter, HeLa cells); assay type: cell-based
# T2 construct: expressed in transfected cells; host or cells: HeLa
# T2 sequence (P10826 1-448 isoform P10826-2): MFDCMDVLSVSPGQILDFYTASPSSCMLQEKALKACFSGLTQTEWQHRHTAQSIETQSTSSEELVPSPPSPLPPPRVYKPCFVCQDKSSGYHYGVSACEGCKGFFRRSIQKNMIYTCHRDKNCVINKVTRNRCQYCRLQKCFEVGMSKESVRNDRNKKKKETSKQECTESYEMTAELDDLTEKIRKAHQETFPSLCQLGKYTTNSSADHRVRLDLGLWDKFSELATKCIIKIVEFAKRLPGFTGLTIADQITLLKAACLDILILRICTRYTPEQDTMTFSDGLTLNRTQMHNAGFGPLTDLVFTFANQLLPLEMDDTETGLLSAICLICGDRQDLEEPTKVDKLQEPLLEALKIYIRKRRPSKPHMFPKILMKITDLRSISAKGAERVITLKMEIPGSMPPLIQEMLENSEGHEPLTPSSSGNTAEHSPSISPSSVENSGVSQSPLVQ
# Experimental: as §2
# as §1, with “assay.” for “assay. Retinoic acid (RA) is used as a reference compound.”
# RARα = target: T3, RARα (Homo sapiens, UniProt P10276); assay: Receptor transactivation assay, RARα (CAT reporter, HeLa cells); assay type: cell-based
# T3 construct: expressed in transfected cells; host or cells: HeLa
# T3 sequence (P10276 1-462): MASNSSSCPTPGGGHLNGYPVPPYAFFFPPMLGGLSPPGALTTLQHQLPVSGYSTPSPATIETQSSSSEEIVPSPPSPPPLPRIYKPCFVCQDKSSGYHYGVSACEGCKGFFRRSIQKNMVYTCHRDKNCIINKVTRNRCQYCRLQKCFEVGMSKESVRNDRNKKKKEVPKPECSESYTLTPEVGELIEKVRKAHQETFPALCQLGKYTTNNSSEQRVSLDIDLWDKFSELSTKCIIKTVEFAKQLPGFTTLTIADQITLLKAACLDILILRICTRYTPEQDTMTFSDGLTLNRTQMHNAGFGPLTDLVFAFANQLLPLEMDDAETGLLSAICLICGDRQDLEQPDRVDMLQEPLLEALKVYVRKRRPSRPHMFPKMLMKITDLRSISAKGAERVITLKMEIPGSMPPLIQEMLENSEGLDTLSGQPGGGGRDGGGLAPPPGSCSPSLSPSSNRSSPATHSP
# Experimental: as §2
# as §1, with “assay.” for “assay. Retinoic acid (RA) is used as a reference compound.”
SMILES,ED30 (the concentration producing a 30% reduction in the rhino mouse utriculi) (Rhino Mouse Utriculi),Transactivation ratio γ (EC50 of test compound / EC50 of retinoic acid) (RARγ),also measured
CC1=C(/C=C/C(C)=C/C=C/C(C)=C\C(=O)O)C(C)(C)CCC1 [13-cis-retinoic acid],–,–,"Increase in serum triglyceride levels [1]: ~ 350%; Elevation in triglyceride levels, fraction of patients treated [2]: […]"
Cc1cc(C(=O)O)ccc1NC(=O)C(O)c1ccc2c(c1)C(C)(C)CCC2(C)C (stereo not shown) [Example 8],1050 µM,66.7,–
"CC1(C)CCC(C)(C)c2cc(C(O)C(=O)Nc3ccc(C(=O)O)cc3F)ccc21 (stereo not shown) [Example 1, 3-Fluoro-4(2'(5"",6"",7"",8""-tetrahydro-5"",5"",8"",8""-tetramethyl-2""-naphthyl)-2'-hydroxy)acetamidobenzoic acid]",155 µM,–,–
CC1(C)CCC(C)(C)c2cc(C(O)C(=O)Nc3ccc(C(=O)O)cc3Cl)ccc21 (stereo not shown) [Example 6],–,13.3,–
CC1(C)CCC(C)(C)c2cc(C(O)C(=O)Nc3ccc(C(=O)O)cc3)ccc21 (stereo not shown) [Example 2],–,6.7,Transactivation ratio β (EC50 of test compound / EC50 of retinoic acid) (RARβ): 50; Transactivation ratio α (EC50 of test compound / EC50 of retinoic acid) (RARα): 66.7
CC1(C)CCC(C)(C)c2cc(C(O)C(=O)Nc3ccc(C(=O)O)cc3O)ccc21 (stereo not shown) [Example 7],–,40,Reduction in rhino mouse utriculi (Rhino Mouse Utriculi; at 16.5 mM): 32%
